Kd data for one molecule are collected here from PMC5029806, “Streptococcus pneumoniae TIGR4 Flavodoxin: Structural and Biophysical Characterization of a Novel Drug Target” (PLoS ONE, 2016).

SMILES strings stand for the structures.

This assay has as its target T1, Streptococcus pneumoniae TIGR4 flavodoxin (SpFld) (Streptococcus pneumoniae, UniProt A0A0H2UQC6).
T1 construct: gene fld; apo form for ITC, SeMet holo form for the crystal structure
As to the kind of experiment: ITC at […]°C ([…] NaCl, […] MES, pH […]); crystal structure of the FMN complex; thermal stabilization by CD, fluorescence and DSC. In kind it is binding.

T1 sequence (A0A0H2UQC6 entry or part of it): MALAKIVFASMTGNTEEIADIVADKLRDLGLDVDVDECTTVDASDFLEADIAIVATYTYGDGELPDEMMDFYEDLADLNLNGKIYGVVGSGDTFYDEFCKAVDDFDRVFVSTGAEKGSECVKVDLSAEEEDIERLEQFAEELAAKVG

As usually defined, the Kd is the free concentration of one partner at which half of the binding sites on the other are occupied at equilibrium, for simple one-to-one binding. Regarding `Cc1cc2nc3c(=O)[nH]c(=O)nc-3n(C[C@H](O)[C@H](O)[C@H](O)COP(=O)(O)O)c2cc1C` [FMN], the Kd was 83 ± 9 nM.
